The species entered for assay [1] is Mus musculus. Put plainly: Antiamyloidogenic activity in R6/2 mouse Huntington's disease model assessed as increase in survival rate relative to control. Format: functional.
The species entered for a further assay is Homo sapiens. The assay can be described thus: Antiprion activity at scrapie prion protein in human brain at 1 mM after 1 hr by Western blotting analysis. It is filed as tissue-based. Background: In western blotting, separated proteins are transferred to a membrane and probed.
Assay [2] relates to Mus musculus. The assay can be described thus: Antiamyloidogenic activity in CMV-lambda6 mouse harboring human lambda LC protein at 0.5 mg/ml administered in drinking water for 3 to 6 months by Congo red staining-based microscopy. Format: functional.
For assay [3], the species on record is Mus musculus. Put plainly: Antiamyloidogenic activity in mouse transfected with human amylin/amyloid polypeptide assessed as increase in survival time relative to control. It is filed as functional.

3 compounds from ChEMBL document CHEMBL3112580, “A new face for old antibiotics: tetracyclines in treatment of amyloidoses” (2013) can be followed below.

The structures appear in SMILES notation.

In the case of `CN(C)c1ccc(O)c2c1C[C@H]1C[C@H]3[C@H](N(C)C)C(O)=C(C(N)=O)C(=O)[C@@]3(O)C(O)=C1C2=O` [MINOCYCLINE], in the assay filed under Mus musculus [1], the Survival worked out at 14%.
For `C[C@H]1c2cccc(O)c2C(=O)C2=C(O)[C@]3(O)C(=O)C(C(N)=O)=C(O)[C@@H](N(C)C)[C@@H]3[C@@H](O)[C@@H]21.O` [DOXYCYCLINE], the Activity in the assay listed under Homo sapiens came out at 80%; in the assay with Mus musculus [2], 23%.
For the compound `CN(C)[C@@H]1C(O)=C(C(N)=O)C(=O)[C@@]2(O)C(O)=C3C(=O)c4c(O)cccc4[C@@](C)(O)[C@H]3C[C@@H]12` [TETRACYCLINE], the Survival in the assay listed under Mus musculus [3] came out at 254%.
